Test results reported in the supplement of paper PMC10477900.
Counter-ions that a name gives are not always drawn.

Assays:
[1] = test system: HCT116; details: 72 h
Method: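 HCT116 control and MTA1-KO (CRISPR) HCT116 cells were seeded in 384-well plates (800 cells/well), treated 16 h later with 237 metabolism-related anticancer drugs at five doses (10 uM, 2 uM, 400 nM, 80 nM, 16 nM) for 72 h, two replicates; viability by CCK8. Values are % inhibition of viability relative to untreated cells, plus fitted IC50.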

[2] = test system: HCT116; test: viability inhibition vs untreated; higher = more cytotoxic; details: 72 h

Compound | IC50 ([1]; genotype: MTA1-KO) [µM] | IC50 ([1]; genotype: control) [µM] | viability inhibition ([2]; genotype: MTA1-KO, 16 nM) [%] | viability inhibition ([2]; genotype: MTA1-KO, 80 nM) [%] | viability inhibition ([2]; genotype: MTA1-KO, 400 nM) [%] | viability inhibition ([2]; genotype: MTA1-KO, 2000 nM) [%] | viability inhibition ([2]; genotype: MTA1-KO, 10000 nM) [%] | viability inhibition ([2]; genotype: control, 16 nM) [%] | viability inhibition ([2]; genotype: control, 80 nM) [%] | viability inhibition ([2]; genotype: control, 400 nM) [%] | viability inhibition ([2]; genotype: control, 2000 nM) [%] | viability inhibition ([2]; genotype: control, 10000 nM) [%]
Nc1cc(C(F)(F)F)c(-c2nc(N3CCOCC3)nc(N3CCOCC3)n2)cn1 [PI3K-IN-2] | 0.468 | 0.7 | 23.9 | 23 | 49.3 | 88.7 | 90.2 | -12.8 | 0.462 | 27.1 | 73.3 | 83.3
CC(C)(CCCCCC(O)CCCCCC(C)(C)C(=O)O)C(=O)O [ETC1002] | > 10 | > 10 | 2.14 | -10.3 | -6.64 | -17.1 | -9.91 | 10.7 | -0.834 | -5.92 | -6.48 | -5.51
O=C(c1ccc(NS(=O)(=O)c2cccc3cccnc23)cc1)N1CCN(CC2CC2)CC1 [Mitapivat] | > 10 | > 10 | 1.32 | 0.728 | -12.6 | -14.4 | -2.88 | -8.53 | -14.2 | -22.8 | -10.3 | -12.3
Nc1ccccc1S(N)(=O)=O [2-Aminobenzenesulfonamide] | > 10 | > 10 | -12 | -6.34 | -8.18 | -6.12 | -8.74 | -4.67 | -10.5 | -7.82 | -0.883 | 19.7
N#CCCCSC(=N)N [Kevetrin hydrochloride] | 2.38 | > 10 | 12.4 | 15 | 12.2 | 33.3 | 57.5 | 16.1 | 19.7 | 23 | -4.7 | 23.9
NN=C(N)N [Aminoguanidine hydrochloride] | > 10 | > 10 | -22 | -27.7 | -23.9 | -10.8 | -13.7 | -13.6 | -11.1 | -12.3 | -13.1 | -5.39
CC(=O)OC(C)(C)/C=C/C(=O)[C@](C)(O)[C@H]1[C@H](O)C[C@@]2(C)[C@@H]3CC=C4[C@@H](C[C@H](O)C(=O)C4(C)C)[C@]3(C)C(=O)C[C@]12C [Cucurbitacin B] | 0.34 | 4.56 | -3.8 | -16.3 | 58.7 | 66.6 | 79.9 | -19.7 | -9.21 | 33.3 | 49.7 | 58.9
O=C(O)c1ccc2c(c1)nc(Nc1cccc(Cl)c1)c1ccncc12 [Silmitasertib] | > 10 | > 10 | -17.2 | -23.7 | -18.2 | -24.2 | -22 | 7.6 | -9.55 | -4.38 | -8.94 | -1.95
NCc1ccc(S(N)(=O)=O)cc1 [Mafenide hydrochloride] | > 10 | > 10 | -13 | -12.9 | -16.5 | -13.4 | -15.9 | -4.74 | 6.87 | -2.33 | -2.58 | -6.77
Cc1cc(-c2nc(-c3ccc(OC(F)(F)F)cc3)no2)nn1Cc1ccnc(N2CCN(C3CC3)CC2)c1 [BAY 87-2243] | > 10 | < 0.016 | 21 | 24.5 | 21.4 | 19.2 | 19.2 | 86.8 | 72.7 | 68.2 | 67.4 | 70.2
Cc1ccc2nc(CN(CCN(Cc3nc4ccc(C)cc4[nH]3)Cc3nc4ccc(C)cc4[nH]3)Cc3nc4ccc(C)cc4[nH]3)[nH]c2c1 | 6.48 | 7.39 | 0.589 | -11.3 | -3.97 | 0.541 | 76.8 | 6.37 | 14.6 | 2.85 | 20.1 | 64.1
N#Cc1ccnc(N2C(=O)CC[C@H]2C(=O)N(c2cncc(F)c2)[C@H](C(=O)NC2CC(F)(F)C2)c2ccccc2Cl)c1 [Ivosidenib] | 5.82 | > 10 | 3.53 | -8.17 | -0.782 | 12.7 | 61.7 | -4.33 | -18.7 | -4.67 | -16.1 | -2.68
NS(=O)(=O)NCCNc1nonc1C(=Nc1ccc(F)c(Br)c1)NO [Epacadostat] | > 10 | > 10 | 17.9 | -8.61 | -7.79 | -6.79 | 6.59 | -9.21 | -6.3 | -14.3 | -5.67 | -5.46
Cn1cc(C[C@@H](N)C(=O)O)c2ccccc21 [Indoximod] | > 10 | > 10 | -22.6 | -22 | -24.2 | -19 | 3.49 | -15.9 | -19.5 | -14.6 | -4.79 | 3.27
O=C(O)CNC(=O)c1c(O)c2ccccc2n(Cc2ccccc2)c1=O [IOX 2] | > 10 | > 10 | 15.5 | -17.5 | -20.5 | -22 | 9.66 | -6.02 | 3.87 | -7.43 | -4.74 | -0.498
CC1=C(CSC(=S)N2CCCCC2)C(=O)c2ccccc2C1=O [PKM2 inhibitor] | 0.861 | > 10 | -2.72 | -15.5 | -11 | 79.7 | 65.9 | -0.424 | -10.4 | -5.1 | 5.17 | 33.3
C[C@]12CC[C@H]3[C@@H](CC[C@@]45O[C@@H]4C(O)=C(C#N)C[C@]35C)[C@@H]1CC[C@@H]2O [Trilostane] | > 10 | > 10 | -17 | -18.6 | -14.1 | -30.8 | -28.2 | 8.35 | 7.91 | 2.11 | -10.9 | -4.61
CC(C)(C#N)c1ccc(N2C(=O)OCc3cnc4ccc(-c5cnc6ccccc6c5)cc4c32)cc1 | > 10 | > 10 | -21.1 | -19.6 | -26.7 | -3.23 | 30.7 | 8.09 | -11.9 | -11.4 | -0.304 | 45.6
C[C@]12CC[C@H](O)C[C@H]1CC[C@@H]1[C@@H]2CC[C@]2(C)[C@@H](c3ccc(=O)oc3)CC[C@]12O [Bufalin] | 0.143 | < 0.016 | 15.4 | 39 | 58.6 | 83.8 | 91 | 65.7 | 67.6 | 69.3 | 77.6 | 80.9

Compound | IC50 ([1]; genotype: MTA1-KO) [µM] | IC50 ([1]; genotype: control) [µM] | viability inhibition ([2]; genotype: MTA1-KO, 16 nM) [%] | viability inhibition ([2]; genotype: MTA1-KO, 80 nM) [%] | viability inhibition ([2]; genotype: MTA1-KO, 400 nM) [%] | viability inhibition ([2]; genotype: MTA1-KO, 2000 nM) [%] | viability inhibition ([2]; genotype: MTA1-KO, 10000 nM) [%] | viability inhibition ([2]; genotype: control, 16 nM) [%] | viability inhibition ([2]; genotype: control, 80 nM) [%] | viability inhibition ([2]; genotype: control, 400 nM) [%] | viability inhibition ([2]; genotype: control, 2000 nM) [%] | viability inhibition ([2]; genotype: control, 10000 nM) [%]
O=C(NCCCNc1nc(Nc2cccc(NC(=O)N3CCCC3)c2)ncc1I)c1cccs1 [BX795] | > 10 | > 10 | -13.8 | -8.82 | -26.4 | -9.81 | -6.85 | -1.4 | -15 | -1.64 | 18.7 | 7.91
COc1ccc2[nH]c([S@@+]([O-])Cc3ncc(C)c(OC)c3C)nc2c1 [Esomeprazole Magnesium] | > 10 | > 10 | 2.7 | 2.87 | 3.11 | 1.54 | 3.86 | 16.3 | 11.1 | 18 | 11.9 | 21.2
CN(C)CCCCC(=O)Nc1ccc(NC(=S)NC(=O)c2ccc(C(C)(C)C)cc2)cc1 [Tenovin-6] | > 10 | 7.71 | -14.1 | -19.6 | -23.8 | -20.1 | 43.5 | -8.39 | 1.22 | 8.03 | 5.54 | 67.5
NS(=O)(=O)c1ccccc1 [Benzenesulfonamide] | 9.29 | 8.77 | 3.96 | -4.26 | 4.06 | 12.2 | 54.7 | 7.65 | 12.9 | 10.8 | 25.5 | 55.6
CC(=NNC(=S)N1CCC1)c1ccccn1 | < 0.016 | < 0.016 | 113 | 110 | 111 | 108 | 107 | 107 | 110 | 95.8 | 105 | 111
O=c1cc(N2CCOCC2)oc2c(-c3ccc4c(c3)OCCO4)csc12 [SF2523] | 8.68 | 9.37 | 7.25 | -7.41 | -9.52 | -14.8 | 68.1 | -25.2 | -16.4 | -24 | -23.1 | 55.5
CO[C@H]1C[C@@H]2CC[C@@H](C)[C@@](O)(O2)C(=O)C(=O)N2CCCC[C@H]2C(=O)O[C@H]([C@H](C)C[C@@H]2CC[C@H](n3cnnn3)[C@H](OC)C2)CC(=O)[C@H](C)/C=C(\C)[C@@H](O)[C@@H](OC)C(=O)[C@H](C)C[C@H](C)/C=C/C=C/C=C/1C [Zotarolimus] | 2.07 | > 10 | 5.1 | -1.86 | 2.56 | 34.7 | 69.3 | -4.9 | -11.3 | -9.38 | -17.6 | 9.36
C=C1C(=O)O[C@H]2[C@H]1CC/C(C)=C/CC[C@@]1(C)O[C@@H]21 [Parthenolide] | 2.9 | 6.58 | 13.7 | 23.4 | 17.3 | 27.8 | 114 | -4.45 | 2.37 | -14.2 | -17.8 | 100
CN(Cc1ccccc1)c1ccc2cc(C(=O)O)c(=O)oc2c1 [7ACC2] | > 10 | 0.373 | -27.3 | -0.988 | 20.9 | 24.6 | 29 | 15 | -0.73 | 50.7 | 64.6 | 80.8
CC(C)(C)c1ccc(S(=O)(=O)NCc2ccc(C(=O)Nc3cccnc3)cc2)cc1 [STF31] | > 10 | 1.33 | 0.724 | -19.9 | -8.95 | -5.53 | 6.98 | 18.1 | 6.81 | 42.8 | 43.4 | 74.1
COc1ccc(COc2cc3oc(=O)c4cc(C(C)O)ccc4c3cc2OC)cc1 (stereo unspecified) [Palomid 529] | 0.283 | 1.11 | -7.41 | 23.6 | 37.3 | 64.4 | 90.1 | 7.44 | 22.7 | 38.9 | 54.6 | 86.9
O=C(O)CCCCC(CCSCc1ccccc1)SCc1ccccc1 (stereo unspecified) [CPI613] | > 10 | > 10 | -15.7 | -15.1 | -22.2 | -25.4 | -7.62 | 7.59 | -3.09 | -6.23 | -6.02 | 8.56
Oc1cccc(-c2nc(N3CCOCC3)c3oc4ncccc4c3n2)c1 [PI103] | 1.82 | 5.97 | 7.63 | -22.6 | -6.55 | 42.3 | 80.5 | -15.1 | -2.17 | -8.02 | -2.63 | 80.1
CCc1ccc(/C=C2/SC(=S)NC2=O)cc1 | > 10 | > 10 | -4.9 | -10 | -9.11 | -3.79 | 1.27 | 7.22 | 4.14 | 13 | 9.23 | 12.7
NCCCC(N)(C(=O)O)C(F)F (stereo unspecified) [Eflornithine hydrochloride Monohydrate] | > 10 | 9.47 | -16.1 | -27.6 | -24 | -21.9 | -20.4 | 11.3 | 1.76 | -3.16 | 0.852 | 61.6
O=c1oc2cc(O)ccc2s1 [Tioxolone] | > 10 | > 10 | -23.8 | -21.4 | -19 | -28.2 | -26.1 | 0.941 | -1.9 | -1.53 | -13.6 | -6.09
NS(=O)(=O)c1cc(Cl)c(Cl)c(S(N)(=O)=O)c1 [Dichlorphenamide] | > 10 | > 10 | 6.61 | -0.189 | -0.404 | -3.85 | 16.5 | -20.7 | -6.03 | -16.5 | -12.6 | -18.3
CCNC(=O)Nc1ccc(-c2nc(N3CCOC[C@@H]3C)c3c(n2)C(C)(C)S(=O)(=O)C3)cc1 [CZ415] | 0.501 | 0.552 | -6.27 | -12.8 | 23.6 | 61.9 | 75.6 | -5.97 | 12.9 | 20.8 | 61.7 | 60.1
CC(C)(C)c1cc(O)ccc1O [TBHQ] | > 10 | > 10 | -1.6 | -25.5 | -23.4 | -13.4 | 41.7 | 16.6 | 25.3 | 20.9 | 17.7 | 17
